Assay results published in patent US8367069B2, “Cytotoxic T cell defined EGFR peptide and an optimized derivative peptide” (University of Pittsburgh—of the Commonwealth System of …, priority 2008, dated 2013).

Tests used:
T2 cells = test: IFN-γ ELISPOT, CTL recognition of polypeptide pulsed T2 cells; assay type: cell-based, human; conditions: T2 cells pulsed with the polypeptide; 10 μg/ml at 37° C.
Procedure: In vitro stimulation (IVS) was performed using EGFR853-861 (i.e., SEQ ID NO: 1, wherein the residue at position 2 is threonine) or EGFR853-861L (i.e., SEQ ID NO: 1, wherein the residue at position 2 is leucine) to induce cytotoxic T lymphocytes (CTL) using CD8+PBMC from five HLA-A*0201^+ healthy donors and one head and neck squamous cell carcinoma (SCCHN) patient. The resulting EGFR-specific CTL were tested for EGFR853-861 specificity and HLA class I antigen restriction using polypeptide pulsed T2 cells. CTL generated against EGFR853-861 polypeptide recognized T2 cells pulsed with either EGFR853-861 or EGFR853-861L polypeptide, but not T2 cells alone or T2 cells incubated with the HIV Pol476-484 polypeptide (10 μg/ml at 37° C.) (see FIGS. 6A and 6B). […]
PBMCs were isolated by density centrifugation on Ficoll-Paque™ PLUS (GE Healthcare Bio-Science AB; SE-751 84 Uppsala) and used to prepare mature DCs using methods described in the art. […] The stimulated CD8^+ T cells were analyzed for specificity in IFN-γ ELISPOT and ^51Cr release assays at day 21 and then every 7 days thereafter.
The recognition of APCs pulsed with polypeptide (EGFR853-861 or EGFR853-861L) and head and neck tumor cells was assessed by ELISPOT assays specific for hu-IFN-γ. […]

EGFR family = test: Cross-reactivity of polypeptide-derived CTL; assay type: cell-based, human
HLA-A*0201 = HLA-A*0201 (Homo sapiens, UniProt P04439, D140Y/D185E/D98H/E176V/E277Q/G131W/G231S/I119V/I121R/I166T/I218V/L300P/L318F/N151K/N90K/P208A/P217A/Q86G/Q94H/R138H/R169H/T345S); conditions: cited from earlier work
PCI-30 = test: IFN-γ ELISPOT, stimulated CD8+ T cells against PCI-30 head and neck tumor cells; assay type: cell-based, human; conditions: substance added to CTL plus PCI-30 cells
Procedure: PBMCs were isolated by density centrifugation on Ficoll-Paque™ PLUS (GE Healthcare Bio-Science AB; SE-751 84 Uppsala) and used to prepare mature DCs using methods described in the art. PBMCs were resuspended at 5×10^7/ml in AIM-V medium (Invitrogen) and were incubated for 90 min in 75-cm^2 tissue culture flasks or six-well plates (37° C.; 5% CO2). Non-adherent (T cell-enriched) cells were gently washed out with HBSS and subsequently frozen. The plastic adherent cells were cultured in AIM-V medium supplemented with 1000 units/ml rhGM-CSF and 1000 units/ml rhIL-4. […] The stimulated CD8^+ T cells were analyzed for specificity in IFN-γ ELISPOT and ^51Cr release assays at day 21 and then every 7 days thereafter.
After incubation at 37° C. in 5% CO2 for 40 hours (IFN-γ ELISPOT assays), cells were removed by washings with PBS-0.05% Tween 20 (PBS-T). Captured cytokine was detected at sites of its secretion by incubation for 4 hours with biotinylated mAb anti-hIFN-γ (7-B6-1; Mabtech) at 2 μg/ml in PBS-0.5% BSA. […] Spot numbers and spot sizes were automatically determined with the use of computer-assisted video image analysis.

HIV Pol476-484: negative control peptide (AGADRQGTV; UniProt P04585 476-484, looked up, fragment)
recognition of polypeptide pulsed T2 cells by CTL generated against EGFR853-861 (T2 cells): not

ITDFGLARL [HER2861-869]
cross-reactivity of CTL derived from the polypeptide (EGFR family): demonstrated cross-reactivity | HLA-A*0201 binding (HLA-A*0201): binds

panitumumab
change in IFN-γ spots on addition to CTLs (stimulated with EGFR853-861) and PCI-30 cells (PCI-30): increased
